Data: patent publication US8242086B2, “Methods and compositions for treating disorders caused by a deficiency in a gene product of a CLN gene” (Duke University, priority 2008, dated 2012)
Blank lines part the entries; values can stand above or below the compound they belong to.

How the values were obtained:
lymphoblasts = test: Propidium iodide staining of lymphoblasts treated with GCT siRNA, with or without etoposide; type: cell-based, human
Protocol: Propidium iodide (PI) staining. Lymphoblasts (treated with GCT siRNA vs. control siRNA) were treated vs. not treated with etoposide and stained with propidium iodide (PI). The percentage of PI positive cells was counted in each.

CLN3 knockdown NT2 cells [1] = test: Cell proliferation rate in CLN3 knockdown NT2 cells, Trypan blue dye exclusion; type: cell-based, human; conditions: NT2 cells, 3 days post-transfection, vs WT-NT2
Protocol: (§1) Cell Culture and Cell Treatment. NT2 neuronal precursor cells (ATCC cat no. CRL 1973) were grown in DMEM supplemented with 1% sodium pyruvate, L-glutamine and antibiotics and incubated in 37 C and 5% CO2 for 3 days.
(§2) siRNA knockdown of CLN3 in NT2 cells. HS1 siRNA ([…]) for CLN3 knockdown was designed using BLOCK-iT RNA™ Designer (Invitrogen). […] siRNA and scrambled universal negative control siRNA oligonucleotides were transfected into wild type NT2 cells using Lipofectamine RNAiMax™ according to manufacturer's protocol. In brief, […] HS1 RNAi duplex or scrambled siRNA universal negative control were diluted in 50 μl DMEM medium without serum. Lipofectamine™ RNAiMAX was mixed gently before use, then 1 μl was diluted in 50 μl DMEM medium. The diluted RNAi duplexes were combined with the diluted Lipofectamine RNAiMAX and incubated for 10 minutes at room temperature. The RNAi duplex-Lipofectamine™ RNAiMAX complexes were added to cells for a final RNA concentration of 10 nM. […]
Determination of cell proliferation rate in CLN3 knockdown NT2 cells. 4×10^5 cells transfected with CLN3 siRNA or scrambled siRNA, and treated or not treated with 50 ng/ml GalCer, were seeded and counted with Trypan blue dye exclusion. […]
NT2 cell proliferation and apoptosis rates. An equal number of NT2 cells was initially seeded and cell number determined at different time points with Trypan blue dye exclusion. […]

CLN3 knockdown NT2 cells [2] = test: Cell apoptosis rate in CLN3 knockdown NT2 cells, propidium iodide; type: cell-based, human; conditions: NT2 cells, 3 days post-transfection, vs wild type
Protocol: as §1
as §2, with “temperature.” for “temperature. The RNAi duplex-Lipofectamine™ RNAiMAX complexes were added to cells for a final RNA concentration of 10 nM.”
Determination of cell apoptosis rate in CLN3 knockdown NT2 cells. 10^6 cells transfected with CLN3 siRNA or scrambled siRNA, either treated with 50 ng/ml of GalCer (Avanti Polar Lipids, inc.) or solvent, are suspended in 100 μl PBS, incubated with 100 μl/0.5 mg/ml PI, washed, placed on slides and viewed using a fluorescence microscope. […] Cells in three fields of vision were counted. Percentage of red staining-apoptotic cells/total cells was determined.

CLN3 transcript = test: Real-Time PCR validation of CLN3 knockdown in NT2 cells; type: cell-based, human; conditions: 3 days post-transfection, vs scrambled siRNA
Protocol: siRNA knockdown of CLN3 in NT2 cells. HS1 siRNA ([…]) for CLN3 knockdown was designed using BLOCK-iT RNA™ Designer (Invitrogen). […] siRNA and scrambled universal negative control siRNA oligonucleotides were transfected into wild type NT2 cells using Lipofectamine RNAiMax™ according to manufacturer's protocol. In brief, […] HS1 RNAi duplex or scrambled siRNA universal negative control were diluted in 50 μl DMEM medium without serum. Lipofectamine™ RNAiMAX was mixed gently before use, then 1 μl was diluted in 50 μl DMEM medium. The diluted RNAi duplexes were combined with the diluted Lipofectamine RNAiMAX and incubated for 10 minutes at room temperature. The RNAi duplex-Lipofectamine™ RNAiMAX complexes were added to cells for a final RNA concentration of 10 nM. Cells were harvested 96 hours post-transfection.
Real-Time PCR validation of CLN3 knockdown. To calculate the effect of CLN3 knockdown following siRNA transfection, RNA from NT2 cells, transfected either with CLN3 siRNA or with scrambled siRNA, was isolated using Trizol reagent (Invitrogen). Reverse transcription was carried out with SuperScript III First-Strand-Synthesis System (Invitrogen). Real Time-PCR was conducted on 500 ng cDNA using /SYBRGreen 10 Mix (Biorad, U.S.A) in a Biorad I-Cycler. […] To confirm CLN3 knockdown, change in fold expression compared to scrambled siRNA transfected control cells was calculated. […]

CLN8 protein = test: Protein-lipid overlay assay, CLN8 protein; type: binding; conditions: lysates from normal cells, custom made sphingostrips
Protocol: (§3) Protein-lipid overlay assay. Membrane arrays (SPHINGOSTRIPS (Echelon Research Laboratories, Salt Lake City, Utah), or lipids were spotted on nitrocellulose membranes and dried for at least one hour. Membranes were blocked with 3% (wt/vol) Fatty Acid Free or FFA-BSA (Sigma-Aldrich, St. Louis, Mo.) in Tris-Buffered Saline Tween-20 (TBST) [150 mM NaCl/10 mM Tris.HCl (pH 8.0), and 0.1% (vol/vol) Tween-20] for 1 h at RT. Blocked membranes were incubated for 8 h at 4° C. with 2 mg/ml of total cell lysate.
(§4) Fibroblasts overexpressing CLN3p (AC1 cells) and JNCL fibroblasts were used for the GalCer-CLN3 binding assay. The membranes were then washed five times for 5 min each with TBST. After washing, membranes were incubated with anti-CLN3, CLN1, CLN2, CLN6 or CLN8-antibodies overnight at 1:1000 dilution, followed by additional washing and incubation with horseradish peroxidase-conjugated anti-rabbit IgG goat antibody for 1 h at RT. After a final washing, enhanced chemiluminescence was used to detect binding of NCL proteins to sphingolipids. Intensity values were computed with an ImageJ software program.
(§5) CLN1, CLN2, CLN6, CLN8 and CLN9 proteins also bind to lipids. […]

CLN1 protein = target: T1, CLN1 protein (Homo sapiens, UniProt P50897); test: Protein-lipid overlay assay, CLN1 protein; type: binding; conditions: lysates from normal cells, custom made sphingostrips
T1 construct: endogenous in cells
T1 sequence (P50897 28-306): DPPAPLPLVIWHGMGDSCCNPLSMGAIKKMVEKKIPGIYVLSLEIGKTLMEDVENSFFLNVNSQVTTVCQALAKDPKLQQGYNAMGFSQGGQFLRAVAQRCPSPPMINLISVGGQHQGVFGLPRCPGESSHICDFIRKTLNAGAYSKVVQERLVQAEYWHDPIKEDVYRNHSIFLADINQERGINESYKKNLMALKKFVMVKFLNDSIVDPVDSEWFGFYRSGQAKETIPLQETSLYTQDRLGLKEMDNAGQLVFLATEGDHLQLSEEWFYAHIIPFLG
Protocol: as §3, §4, §5

CLN2 protein = target: T2, CLN2 protein (Homo sapiens, UniProt O14773); test: Protein-lipid overlay assay, CLN2 protein; type: binding; conditions: lysates from normal cells, custom made sphingostrips
T2 construct: endogenous in cells
T2 sequence (O14773 196-563): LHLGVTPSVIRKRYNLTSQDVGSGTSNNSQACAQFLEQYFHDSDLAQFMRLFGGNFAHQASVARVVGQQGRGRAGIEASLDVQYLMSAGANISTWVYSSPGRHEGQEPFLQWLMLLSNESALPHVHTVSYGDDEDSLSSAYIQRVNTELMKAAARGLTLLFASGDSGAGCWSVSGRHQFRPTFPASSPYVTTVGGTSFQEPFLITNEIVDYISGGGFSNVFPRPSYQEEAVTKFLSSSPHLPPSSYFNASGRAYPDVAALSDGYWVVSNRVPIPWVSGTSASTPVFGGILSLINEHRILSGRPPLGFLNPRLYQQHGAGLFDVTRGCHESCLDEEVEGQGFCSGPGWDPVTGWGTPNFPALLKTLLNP
Protocol: as §3, §4, §5

CLN6 protein = target: T3, CLN6 protein (Homo sapiens, UniProt Q9NWW5); test: Protein-lipid overlay assay, CLN6 protein; type: binding; conditions: lysates from normal cells, custom made sphingostrips
T3 construct: endogenous in cells
T3 sequence (Q9NWW5 1-311): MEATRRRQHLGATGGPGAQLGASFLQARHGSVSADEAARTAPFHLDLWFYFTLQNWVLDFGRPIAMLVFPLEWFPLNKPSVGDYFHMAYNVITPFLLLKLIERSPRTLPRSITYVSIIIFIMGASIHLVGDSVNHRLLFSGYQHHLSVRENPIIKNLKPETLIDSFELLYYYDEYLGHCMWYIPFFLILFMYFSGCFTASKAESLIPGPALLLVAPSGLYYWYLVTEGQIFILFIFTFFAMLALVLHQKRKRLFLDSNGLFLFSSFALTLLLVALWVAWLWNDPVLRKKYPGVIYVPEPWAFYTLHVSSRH
Protocol: as §3, §4
CLN1, CLN2, CLN6, CLN8 and CLN9 proteins also bind to lipids. The protein-lipid overlay assay, using custom made sphingostrips, lysates from normal cells and anti-CLN1, anti-CLN2-, anti-CLN6, and anti-CLN8-antibodies, established that CLN6 and CLN8 proteins bind to GalCer, CLN1, CLN2 and CLN6p bind lysophosphatidic acid (LPA) and sulfatide, and CLN8p binds ceramide (FIG. 5).

wild-type CLN3p = target: T4, wild-type CLN3p (Homo sapiens, UniProt Q13286); test: Protein-lipid overlay assay, wild-type CLN3p; type: binding; conditions: lysate of CLN3-overexpressing cells, anti-CLN3 antibody
T4 construct: expressed in transfected cells; host or cells: fibroblasts overexpressing CLN3p (AC1 cells)
T4 sequence (Q13286 1-438): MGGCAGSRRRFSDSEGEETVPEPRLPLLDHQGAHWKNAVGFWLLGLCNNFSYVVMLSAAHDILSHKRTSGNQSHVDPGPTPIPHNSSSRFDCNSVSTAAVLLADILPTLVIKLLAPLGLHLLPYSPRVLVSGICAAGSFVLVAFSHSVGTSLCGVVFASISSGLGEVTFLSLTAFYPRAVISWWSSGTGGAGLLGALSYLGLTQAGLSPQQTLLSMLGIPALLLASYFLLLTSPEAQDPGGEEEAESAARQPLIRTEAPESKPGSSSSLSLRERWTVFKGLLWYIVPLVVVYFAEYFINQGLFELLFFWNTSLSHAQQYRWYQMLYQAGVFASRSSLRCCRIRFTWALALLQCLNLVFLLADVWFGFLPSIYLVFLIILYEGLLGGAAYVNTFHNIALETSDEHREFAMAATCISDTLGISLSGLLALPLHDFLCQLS
Protocol: as §3, §4
Binding of CLN3 to GalCer and sulfatide. Membranes impregnated with sphingolipids were overlaid with protein cell lysates from CLN3-overexpressing and JNCL cells. Anti-CLN3 antibody was used to evaluate binding. […] The signal for GalCer-wild-type CLN3p binding was weaker because the more polar sulfatide competes with the less polar GalCer for binding to wild-type CLN3p.

mutant CLN3p = test: Protein-lipid overlay assay, mutant CLN3p (JNCL cell lysate); type: binding, human; conditions: lysate of JNCL cells, anti-CLN3 antibody
Protocol: as §3, §4
Binding of CLN3 to GalCer and sulfatide. Membranes impregnated with sphingolipids were overlaid with protein cell lysates from CLN3-overexpressing and JNCL cells. Anti-CLN3 antibody was used to evaluate binding. […]

Compound: COc1cc([C@@H]2c3cc4c(cc3[C@@H](O[C@@H]3O[C@@H]5CO[C@@H](C)O[C@H]5[C@H](O)[C@H]3O)[C@H]3COC(=O)[C@H]23)OCO4)cc(OC)c1O [Etoposide, etoposide]
- effect of etoposide on apoptosis of GCT knockdown cells (lymphoblasts): augmented the effect of reduced GalCer on apoptosis

Compound: HS1: HS1 siRNA (TCACGATTTGACTGCAACTCTG) for CLN3 knockdown (listed as DNA, chemistry not given here) [reference compound]
- decrease in growth (CLN3 knockdown NT2 cells [1]): 58%
- increase in apoptosis (CLN3 knockdown NT2 cells [2]): 2.4 fold
- decrease in CLN3 expression (CLN3 transcript): 22 fold

- binding of CLN8 protein to lipid (CLN8 protein): binds
Compound: ceramide

- binding of CLN1 protein to lipid (CLN1 protein): bind
- binding of CLN2 protein to lipid (CLN2 protein): bind
- binding of CLN6 protein to lipid (CLN6 protein): bind
Compound: lysophosphatidic acid

Compound: sulfatide
- binding of wild-type CLN3p to membrane spots impregnated with the lipid (wild-type CLN3p): bind strongly
- binding of mutant CLN3 to membrane spots impregnated with the lipid (mutant CLN3p): failed to do so
- binding of CLN1 protein to lipid (CLN1 protein): bind
- binding of CLN2 protein to lipid (CLN2 protein): bind
- binding of CLN6 protein to lipid (CLN6 protein): bind
